# Structures can show the parent of a compound that is named as a salt.
# Molecular target: MASP-2 CCP2-SP (Homo sapiens (Human), UniProt O00187)
# Assay: MASP-2 co-crystallization, X-ray crystallography and structure analysis (H-bonds, van der Waals contacts);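 as to Ligand-pharmacophore element distance, pharmacophore element C2: distance from averaged pharmacophore element to bound ligand; missing value means element absent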;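 as to Ligand-pharmacophore element distance, pharmacophore element C3: distance from averaged pharmacophore element to bound ligand; missing value means element absent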;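 as to Ligand-pharmacophore element distance, pharmacophore element C4: distance from averaged pharmacophore element to bound ligand; missing value means element absent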;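 as to Ligand-pharmacophore element distance, pharmacophore element C5: distance from averaged pharmacophore element to bound ligand; missing value means element absent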
# Parameters: van der Waals contact distance, MASP-2 HIS 483 atom CD2 / van der Waals contact distance, MASP-2 HIS 483 atom NE2 / van der Waals contact distance, SER 654 C to compound atom / van der Waals contact distance, SER 654 O to compound atom / van der Waals contact distance, TRP 655 C to compound atom / van der Waals contact distance, MASP-2 GLY 528 atom CA / van der Waals contact distance TRP 655 atom CZ3 / van der Waals contact distance TRP 655 atom N / van der Waals contact distance TRP 655 atom CE3 / van der Waals contact distance GLY 656 atom C / van der Waals contact distance GLY 656 atom CA / van der Waals contact distance GLY 656 atom O / van der Waals contact distance, MASP-2 TYR 607 atom CD1 / van der Waals contact distance, MASP-2 PRO 606 atom O / d(C3,CA1) / d(CA1,N1)2 / d(H4,O1) / d(H4,O2) / d(O1,O2) / d(CA1,O2) / d(CA6,O1) / d(CA6,O2) / d(CA1,C5) / d(O2,H3) / d(N2,C2) / d(CA5,N2) / d(N2,C4) / d(N2,C6) / d(N2,CA3) / d(N2,O3) / d(O4,H2): unit not given beside the values
# Conditions: for H-bond distance to MASP-2 ASP 627 atom OD2: ASP 627 OD2; for H-bond distance to MASP-2 GLY 656 atom N: GLY 656 N; for H-bond distance to MASP-2 GLY 656 atom O: GLY 656 O; for H-bond distance to MASP-2 SER 654 atom O: SER 654 O; for H-bond distance to MASP-2 SER 657 atom O: SER 657 O; for van der Waals contact distance TRP 655 atom CZ3: MASP-2 TRP 655 CZ3; for Ligand-pharmacophore element distance, pharmacophore element C2 / Ligand-pharmacophore element distance, pharmacophore element C3 / Ligand-pharmacophore element distance, pharmacophore element C4 / Ligand-pharmacophore element distance, pharmacophore element C5 / Ligand-pharmacophore element distance, pharmacophore element C6 / Ligand-pharmacophore element distance, pharmacophore element C7 / Ligand-pharmacophore element distance, pharmacophore element CA1 / Ligand-pharmacophore element distance, pharmacophore element CA2 / Ligand-pharmacophore element distance, pharmacophore element CA3 / Ligand-pharmacophore element distance, pharmacophore element CA4 / Ligand-pharmacophore element distance, pharmacophore element CA5 / Ligand-pharmacophore element distance, pharmacophore element CA6: Table A4-1; for d(C3,CA1) / d(CA1,N1)2 / d(CA1,O1) / d(CA1,O2) / d(H4,O1) / d(H4,O2) / d(O1,O2): Table A5-1 pharmacophore: distance between elements, S2/S1 region; for d(N2,CA2) / d(O2,H3) / d(O2,N2): Table A5-2 pharmacophore distance, S3/S4 region; for a(C3, CA1, O1) / a(CA1, O1, O2) / a(O1, O2, H4) / a(N1, CA1, O1) b): Table A6-1 pharmacophore angle; for a(N1, CA1, O1) b): Methyl-amino-pyridine compounds; for a(O1, O2, H3) / a(O1, O2, N2) / a(O2, N2, CA2): Table A6-2 pharmacophore angle; for Pharmacophore torsion angle a(C3, CA1, O1, H4) / Pharmacophore torsion angle a(H4, O1, O2, H3) / Pharmacophore torsion angle a(H4, O1, O2, N2) / Pharmacophore torsion angle a(N1, CA1, O1, H4) / Pharmacophore torsion angle a(O1, H4, O2, CA1): Table A7-1; for Pharmacophore torsion angle a(C3, CA1, O1, H4) / Pharmacophore torsion angle a(H4, O1, O2, H3) / Pharmacophore torsion angle a(H4, O1, O2, N2) / Pharmacophore torsion angle a(N1, CA1, O1, H4) / Pharmacophore torsion angle a(O1, H4, O2, CA1) / Pharmacophore torsion angle a(O1, O2, N2, CA2) / Pharmacophore torsion angle a(O1, O2, N2, CA4): between pharmacophore elements of the bound compound; for Pharmacophore torsion angle a(O1, O2, N2, CA2) / Pharmacophore torsion angle a(O1, O2, N2, CA4): Table A7-2
# Outline: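 Contacts and H-bonds come from partially refined soaked-crystal structures of recombinant human CCP2-SP made in E. coli, solved by molecular replacement against 1Q3X fragments. Where several ligand poses appeared, only one was analysed; listed nonbonded contacts may include possible H-bond pairings.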
# [1] = Table A2-7: SER 628 (CB, O, OG)
# Sequence of MASP-2 CCP2-SP (O00187 445-686): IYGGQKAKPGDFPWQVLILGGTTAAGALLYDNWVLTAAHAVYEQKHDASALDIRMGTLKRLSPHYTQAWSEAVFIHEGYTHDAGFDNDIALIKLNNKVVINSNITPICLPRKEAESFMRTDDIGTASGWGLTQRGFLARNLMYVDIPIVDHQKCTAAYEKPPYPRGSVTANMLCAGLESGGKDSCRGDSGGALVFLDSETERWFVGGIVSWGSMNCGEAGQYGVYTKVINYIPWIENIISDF
# Sequence of MASP-2 CCP2-SP (O00187 364-432 partner): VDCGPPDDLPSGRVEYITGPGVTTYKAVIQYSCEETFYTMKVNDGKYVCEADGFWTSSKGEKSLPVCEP
smiles,measurement,setting,value
"Cc1nc(N)ccc1CNC(=O)[C@H](C)NC(=O)[C@H]1C[C@H](Cc2cc(-c3ccccc3)cs2)CN1 [compound 1399, (2R,4R)—N—((S)-1-(((6-Amino-2-methylpyridin-3-yl)methyl)amino)-1-oxopropan-2-yl)-4-((4-phenylthiophen-2-yl)methyl)pyrrolidine-2-carboxamide Dihydrochloride]",H-bond distance to MASP-2 ASP 627 atom OD2,Table A1 (H-Bonds),3.26
same,H-bond distance to MASP-2 GLY 656 atom N,Table A1 (H-Bonds),3.21
same,H-bond distance to MASP-2 GLY 656 atom O,Table A1 (H-Bonds),2.75
same,H-bond distance to MASP-2 SER 628 atom O,"Table A1 (H-Bonds), SER 628 O",3.15
same,H-bond distance to MASP-2 SER 654 atom O,Table A1 (H-Bonds),3.04
same,H-bond distance to MASP-2 SER 657 atom O,Table A1 (H-Bonds),2.86
same,"van der Waals contact distance, MASP-2 amino acid atom to compound atom",Table A2,3.7
same,"van der Waals contact distance, MASP-2 HIS 483 atom CD2",Table A2-1,3.72
same,"van der Waals contact distance, MASP-2 HIS 483 atom NE2",Table A2-1,3.6
same,"van der Waals contact distance, MASP-2 PHE 529 atom CD2",Table A2-3,3.85
same,"van der Waals contact distance, MASP-2 PHE 529 atom CE2",Table A2-3,3.7
same,"van der Waals contact distance, MASP-2 amino acid atom to compound atom",[1],3.61
same,"van der Waals contact distance, VAL 653 CG1 to compound atom",Table A2-11,3.32
same,"van der Waals contact distance, TRP 655 CA to compound atom",Table A2-12,3.43
same,van der Waals contact distance TRP 655 atom CZ3,Table A2-13,3.42
same,"van der Waals contact distance, MASP-2 amino acid atom to compound atom",Table A2 section before Table A2-8,3.81
same,"Ligand-pharmacophore element distance, pharmacophore element C2",,0
same,"Ligand-pharmacophore element distance, pharmacophore element C3",,0.14
same,"Ligand-pharmacophore element distance, pharmacophore element C4",,0
same,"Ligand-pharmacophore element distance, pharmacophore element C5",,0
same,"Ligand-pharmacophore element distance, pharmacophore element C6",,0
same,"Ligand-pharmacophore element distance, pharmacophore element C7",,0
same,"Ligand-pharmacophore element distance, pharmacophore element CA1",,0.59
same,"Ligand-pharmacophore element distance, pharmacophore element CA2",,0.85
same,"Ligand-pharmacophore element distance, pharmacophore element CA3",,0
same,"Ligand-pharmacophore element distance, pharmacophore element CA4",,2.39
same,"Ligand-pharmacophore element distance, pharmacophore element CA5",,0
same,"Ligand-pharmacophore element distance, pharmacophore element CA6",,0
same,"d(C3,CA1)",,2.86
same,"d(CA1,N1)2",,1.38
same,"d(CA1,O1)",,4.40
same,"d(CA1,O2)",,3.92
same,"d(H4,O1)",,4.40
same,"d(H4,O2)",,3.82
same,"d(O1,O2)",,3.33
same,"d(N2,CA2)",,5.96
same,"d(O2,H3)",,4.09
same,"d(O2,N2)",,2.67
same,"a(C3, CA1, O1)",,149.86
same,"a(CA1, O1, O2)",,105.80
same,"a(O1, O2, H4)",,132.84
same,"a(N1, CA1, O1) b)",,173.87
same,"a(O1, O2, H3)",,145.77
same,"a(O1, O2, N2)",,143.45
same,"a(O2, N2, CA2)",,157.06
same,"Pharmacophore torsion angle a(C3, CA1, O1, H4)",,24.20
same,"Pharmacophore torsion angle a(H4, O1, O2, H3)",,50.25
same,"Pharmacophore torsion angle a(H4, O1, O2, N2)",,142.63
same,"Pharmacophore torsion angle a(N1, CA1, O1, H4)",,0.87
same,"Pharmacophore torsion angle a(O1, H4, O2, CA1)",,−83.35
same,"Pharmacophore torsion angle a(O1, O2, N2, CA2)",,126.87
same,"Pharmacophore torsion angle a(O1, O2, N2, CA4)",,113.10
"Cc1nc(N)ccc1CNC(=O)[C@H](C)NC(=O)[C@H]1C[C@H](Cc2cccc(-c3ccccc3)c2)CN1 [compound 1406, (2R,4S)-4-([1,1′-Biphenyl]-3-ylmethyl)-N—((S)-1-(((6-amino-2-methylpyridin-3-yl)methyl)amino)-1-oxopropan-2-yl)pyrrolidine-2-carboxamide Dihydrochloric acid]",H-bond distance to MASP-2 ASP 627 atom OD2,Table A1 (H-Bonds),3.22
same,H-bond distance to MASP-2 GLY 656 atom N,Table A1 (H-Bonds),3.28
same,H-bond distance to MASP-2 GLY 656 atom O,Table A1 (H-Bonds),2.76
same,H-bond distance to MASP-2 SER 654 atom O,Table A1 (H-Bonds),2.96
same,H-bond distance to MASP-2 SER 657 atom O,Table A1 (H-Bonds),2.78
same,"van der Waals contact distance, MASP-2 amino acid atom to compound atom",Table A2,3.74
same,"van der Waals contact distance, MASP-2 ASP 526 atom C",Table A2-1,3.55
same,"van der Waals contact distance, MASP-2 ASP 526 atom CA",Table A2-1,3.89
same,"van der Waals contact distance, MASP-2 ASP 526 atom O",Table A2-1,3.69
same,"van der Waals contact distance, MASP-2 HIS 483 atom CD2",Table A2-1,3.7
same,"van der Waals contact distance, MASP-2 HIS 483 atom NE2",Table A2-1,3.67
same,"van der Waals contact distance, MASP-2 ALA 527 atom C",Table A2-2,3.68
same,"van der Waals contact distance, MASP-2 ALA 527 atom CA",Table A2-2,3.83
same,"van der Waals contact distance, MASP-2 amino acid atom to compound atom",[1],3.76
same,"van der Waals contact distance, SER 654 C to compound atom",Table A2-11,3.59
same,"van der Waals contact distance, VAL 653 CG1 to compound atom",Table A2-11,3.27
same,van der Waals contact distance TRP 655 atom CE3,"Table A2-13, MASP-2 TRP 655 CE3, compound atom in line below",3.7
same,van der Waals contact distance TRP 655 atom CZ3,Table A2-13,3.51
same,van der Waals contact distance TRP 655 atom N,"Table A2-13, MASP-2 TRP 655 N",3.85
same,"Ligand-pharmacophore element distance, pharmacophore element C2",,0
same,"Ligand-pharmacophore element distance, pharmacophore element C3",,0.12
same,"Ligand-pharmacophore element distance, pharmacophore element C4",,0
same,"Ligand-pharmacophore element distance, pharmacophore element C5",,0
same,"Ligand-pharmacophore element distance, pharmacophore element C6",,0
same,"Ligand-pharmacophore element distance, pharmacophore element C7",,0
same,"Ligand-pharmacophore element distance, pharmacophore element CA1",,0.56
same,"Ligand-pharmacophore element distance, pharmacophore element CA2",,0.42
same,"Ligand-pharmacophore element distance, pharmacophore element CA3",,0
same,"Ligand-pharmacophore element distance, pharmacophore element CA4",,1.59
same,"Ligand-pharmacophore element distance, pharmacophore element CA5",,0
same,"Ligand-pharmacophore element distance, pharmacophore element CA6",,0
same,"d(C3,CA1)",,2.86
same,"d(CA1,N1)2",,1.38
same,"d(CA1,O1)",,4.36
same,"d(CA1,O2)",,4.00
same,"d(H4,O1)",,4.35
same,"d(H4,O2)",,3.89
same,"d(O1,O2)",,3.29
same,"d(N2,CA2)",,5.98
same,"d(O2,H3)",,4.44
same,"d(O2,N2)",,2.64
same,"a(C3, CA1, O1)",,149.47
same,"a(CA1, O1, O2)",,107.31
same,"a(O1, O2, H4)",,133.28
same,"a(N1, CA1, O1) b)",,173.92
same,"a(O1, O2, H3)",,147.38
same,"a(O1, O2, N2)",,140.17
same,"a(O2, N2, CA2)",,156.30
same,"Pharmacophore torsion angle a(C3, CA1, O1, H4)",,23.93
same,"Pharmacophore torsion angle a(H4, O1, O2, H3)",,50.99
same,"Pharmacophore torsion angle a(H4, O1, O2, N2)",,135.75
same,"Pharmacophore torsion angle a(N1, CA1, O1, H4)",,−2.51
same,"Pharmacophore torsion angle a(O1, H4, O2, CA1)",,−83.05
same,"Pharmacophore torsion angle a(O1, O2, N2, CA2)",,127.54
same,"Pharmacophore torsion angle a(O1, O2, N2, CA4)",,102.90

# Reference: patent US12195427B2, “MASP-2 inhibitors and methods of use” (priority 2018, dated 2025)
